Laboratory results as given in ChEMBL document CHEMBL4732256, “Synthesis and biological activities of novel mitochondria-targeted artemisinin ester derivatives” (Bioorg Med Chem Lett, 2021).
The source made the active and inactive calls. The rule behind the calls is not given here.

Legend:
[1] = test system: A549; assay: Cytotoxicity against human A549 cells assessed as reduction in cell viability by MTT assay; type: functional, cell-based
[2] = test system: SMMC-7721; assay: Cytotoxicity against human SMMC-7721 cells assessed as reduction in cell viability by MTT assay; type: functional, cell-based
[3] = test system: OVCAR-3; assay: Cytotoxicity against human OVCAR3 cells assessed as reduction in cell viability by MTT assay; type: functional, cell-based
[4] = test system: J82; assay: Cytotoxicity in human J82 cells assessed as reduction in cell viability by MTT assay; type: functional, cell-based
[5] = test system: HepG2; assay: Cytotoxicity against human HepG2 cells assessed as reduction in cell viability by MTT assay; type: functional, cell-based
[6] = test system: HUVEC; assay: Cytotoxicity against HUVEC assessed as reduction in cell viability by MTT assay; type: cell-based; settings: Homo sapiens
[7] = test system: OVCAR-3; assay: Induction of apoptosis in human OVCAR-3 cells assessed as necrotic cell at 10 uM after 48 hrs by Annexin V-FITC/PI staining based flow cytometry (reference value: 0.00%); type: functional
[8] = test system: OVCAR-3; assay: Induction of apoptosis in human OVCAR-3 cells assessed as late apoptotic cell at 10 uM after 48 hrs by Annexin V-FITC/PI staining based flow cytometry (reference value: 0.118%); type: functional
[9] = test system: OVCAR-3; assay: Induction of apoptosis in human OVCAR-3 cells assessed as early apoptotic cell at 10 uM after 48 hrs by Annexin V-FITC/PI staining based flow cytometry (reference value: 1.58%); type: functional
[10] = test system: OVCAR-3; assay: Induction of apoptosis in human OVCAR-3 cells assessed as viable cell at 10 uM after 48 hrs by Annexin V-FITC/PI staining based flow cytometry (reference value: 98.3%); type: functional
[11] = test system: A549; assay: Potency index, ratio of cisplatin IC50 to test compound IC50 for human A549 cells; type: functional
[12] = test system: OVCAR-3; assay: Induction of apoptosis in human OVCAR-3 cells assessed as early apoptotic cell at 10 uM after 48 hrs in presence of 4C-TPPBr by Annexin V-FITC/PI staining based flow cytometry (reference value: 1.58%); type: functional
[13] = test system: OVCAR-3; assay: Induction of apoptosis in human OVCAR-3 cells assessed as viable cell at 10 uM after 48 hrs in presence of 4C-TPPBr by Annexin V-FITC/PI staining based flow cytometry (reference value: 98.3%); type: functional
[14] = test system: OVCAR-3; assay: Induction of apoptosis in human OVCAR-3 cells assessed as late apoptotic cell at 10 uM after 48 hrs in presence of 4C-TPPBr by Annexin V-FITC/PI staining based flow cytometry (reference value: 0.118%); type: functional
[15] = test system: OVCAR-3; assay: Induction of apoptosis in human OVCAR-3 cells assessed as necrotic cell at 10 uM after 48 hrsin presence of 4C-TPPBr by Annexin V-FITC/PI staining based flow cytometry (reference value: 0.00%); type: functional; settings: time 48 hrs
[16] = test system: OVCAR-3; assay: Induction of apoptosis in human OVCAR-3 assessed as nuclear shrinkage measured after 48 hrs by Hoechst 33258 staining based fluorescence microscopic analysis; type: functional, cell-based; settings: dose 3-10 µM
[17] = Selectivity index ratio of IC50 for HUVEC to IC50 for human OVCAR3 cells
[18] = test system: OVCAR-3; assay: Cytotoxicity against human OVCAR-3 cells at 1 to 10 uM measured after 72 hrs in presence of N-acetyl cysteine by MTT assay; type: functional, cell-based; settings: dose 1-10 µM
[19] = test system: OVCAR-3; assay: Induction of mitochondrial membrane potential loss in human OVCAR-3 cells assessed as mitochondrial depolarization by measuring green fluorescence at 3 uM measured after 48 hrs by JCI staining based fluorescence microscopy (reference value: 3.3 %); type: functional
[20] = test system: OVCAR-3; assay: Potency index, ratio of cisplatin IC50 to test compound IC50 for human OVCAR-3 cells; type: functional
[21] = test system: OVCAR-3; assay: Induction of mitochondrial membrane potential loss in human OVCAR-3 cells assessed as mitochondrial depolarization by measuring green fluorescence at 10 uM measured after 48 hrs by JCI staining based fluorescence microscopy (reference value: 3.3 %); type: functional
[22] = test system: OVCAR-3; assay: Induction of heme-mediated cell death in human OVCAR-3 cells assessed as reduction in cell viability at 3 to 30 uM pretreated with delta-aminolevulinic acid followed by compound addition by Hoechst 33258 staining based assay; settings: dose 3-30 µM
[23] = test system: OVCAR-3; assay: Induction of mitochondrial membrane potential loss in human OVCAR-3 cells assessed as mitochondrial depolarization by measuring green fluorescence at 30 uM measured after 48 hrs by JCI staining based fluorescence microscopy (reference value: 3.3 %); type: functional
[24] = test system: OVCAR-3; assay: Induction of apoptosis in human OVCAR-3 assessed as nuclear blebbing measured after 48 hrs by Hoechst 33258 staining based fluorescence microscopic analysis; type: functional, cell-based; settings: dose 3-10 µM
[25] = test system: OVCAR-3; assay: Induction of ROS generation in human OVCAR-3 cells at 1 to 10 uM measured after 48 hrs in presence of N-acetyl cysteine by DCFH-DA staining based fluorescence microscopy; type: functional, cell-based; settings: dose 1-10 µM
[26] = test system: OVCAR-3; assay: Induction of heme-mediated cell death in human OVCAR-3 cells assessed as reduction in cell viability at 3 to 30 uM pretreated with succinyl-acetone followed by compound addition by Hoechst 33258 staining based assay; settings: dose 3-30 µM
[27] = test system: OVCAR-3; assay: Induction of apoptosis in human OVCAR-3 assessed as nuclear rounding measured after 48 hrs by Hoechst 33258 staining based fluorescence microscopic analysis; type: functional, cell-based; settings: dose 3-10 µM
[28] = test system: OVCAR-3; assay: Induction of ROS generation in human OVCAR-3 cells measured after 48 hrs by DCFH-DA staining based fluorescence microscopy; type: functional, cell-based; settings: dose 1-10 µM

Compound: C[C@H]1[C@H](OC(=O)CC[P+](c2ccccc2)(c2ccccc2)c2ccccc2)O[C@@H]2O[C@@]3(C)CC[C@H]4[C@H](C)CC[C@@H]1[C@@]24OO3
- IC50 [1]: 26.5 µM
- IC50 [2]: 62.7 µM
- IC50 [3]: 35.7 µM
- IC50 [4]: 78.8 µM
- IC50 [5]: 1.2 µM
- IC50 [6]: 66.5 µM

Compound: C[C@H]1[C@H](OC(=O)CCC[P+](c2ccccc2)(c2ccccc2)c2ccccc2)O[C@@H]2O[C@@]3(C)CC[C@H]4[C@H](C)CC[C@@H]1[C@@]24OO3
- IC50 [1]: 12.2 µM
- IC50 [2]: 34.2 µM
- IC50 [3]: 15.8 µM
- IC50 [4]: 115 µM
- IC50 [5]: 35.7 µM
- IC50 [6]: 116 µM

Compound: C[C@H]1[C@H](OC(=O)CCC(=O)OCCCCC[P+](c2ccccc2)(c2ccccc2)c2ccccc2)O[C@@H]2O[C@@]3(C)CC[C@H]4[C@H](C)CC[C@@H]1[C@@]24OO3
- IC50 [1]: 5.6 µM
- IC50 [2]: 13 µM
- IC50 [3]: 6.6 µM
- IC50 [4]: 29.3 µM
- IC50 [5]: 16.1 µM
- IC50 [6]: 27.5 µM

Compound: O=C(O)CCCC[P+](c1ccccc1)(c1ccccc1)c1ccccc1.[Br-]
- Activity [7]: 1.55%
- Activity [8]: 0.625%
- Activity [9]: 5.81%
- Activity [10]: 92%

Compound: C[C@H]1[C@H](OC(=O)CCC(=O)OCCC[P+](c2ccccc2)(c2ccccc2)c2ccccc2)O[C@@H]2O[C@@]3(C)CC[C@H]4[C@H](C)CC[C@@H]1[C@@]24OO3
- IC50 [1]: 5.5 µM
- IC50 [2]: 23.6 µM
- IC50 [3]: 16.6 µM
- IC50 [4]: 43.8 µM
- IC50 [5]: 13 µM
- IC50 [6]: 18.3 µM

Compound: C[C@H]1[C@H](OC(=O)CCCCC[P+](c2ccccc2)(c2ccccc2)c2ccccc2)O[C@@H]2O[C@@]3(C)CC[C@H]4[C@H](C)CC[C@@H]1[C@@]24OO3.[Br-]
- IC50 [1]: 2.7 µM
- Ratio IC50 [11]: 4.8
- IC50 [2]: 11.9 µM
- IC50 [3]: 7.1 µM
- IC50 [4]: 13.9 µM
- IC50 [5]: 5.3 µM
- IC50 [6]: 9.1 µM

Compound: C[C@H]1[C@H](OC(=O)CCC(=O)O)O[C@@H]2O[C@@]3(C)CC[C@H]4[C@H](C)CC[C@@H]1[C@@]24OO3 [ARTESUNATE]
- IC50 [1]: 5.4 µM
- IC50 [2]: 72.3 µM
- IC50 [3]: 67.3 µM
- IC50 [4]: 75.7 µM
- IC50 [5]: 47 µM
- IC50 [6]: 86.1 µM

Compound: C[C@H]1[C@@H](O)O[C@@H]2O[C@@]3(C)CC[C@H]4[C@H](C)CC[C@@H]1[C@@]24OO3 [ARTENIMOL]
- Activity [12]: 2.74%
- IC50 [1]: 27.8 µM
- Activity [7]: 0.062%
- Activity [13]: 95.7%
- IC50 [2]: 61.4 µM
- IC50 [3]: 87.2 µM
- Activity [8]: 1.97%
- Activity [9]: 3.61%
- IC50 [4]: 146 µM
- IC50 [5]: 73.6 µM
- Activity [14]: 1.56%
- Activity [10]: 94.4%
- Activity [15]: 0.01%
- IC50 [6]: 180 µM

Compound: C[C@H]1[C@H](OC(=O)CCCC[P+](c2ccccc2)(c2ccccc2)c2ccccc2)O[C@@H]2O[C@@]3(C)CC[C@H]4[C@H](C)CC[C@@H]1[C@@]24OO3.[Br-]
- Activity [16]: Dose-dependent effect
- IC50 [1]: 4.7 µM
- Activity [7]: 0.078%
- Ratio IC50 [17]: 8.2
- Activity [18]: inactive
- Activity [19]: 17.2%
- Ratio IC50 [11]: 4.8
- Ratio IC50 [20]: 4.4
- IC50 [2]: 18 µM
- IC50 [3]: 3 µM
- Activity [8]: 4.04%
- Activity [9]: 10.5%
- Activity [21]: 55.4%
- Activity [22]: inactive
- Activity [23]: 95.5%
- Activity [24]: Dose-dependent effect
- Activity [25]: inactive
- IC50 [4]: 41.9 µM
- IC50 [5]: 5.2 µM
- Activity [26]: inactive
- Activity [27]: Dose-dependent effect
- Activity [10]: 85.4%
- Activity [28]: Active
- IC50 [6]: 24.5 µM
